Source: patent publication US10793557B2, “Sting agonist compounds” (Merck Sharp & Dohme Corp., priority 2018, dated 2020)

Tests used:
[1] = system: secretion of interferon-beta from THP1 cells; assay: IFN-β secretion in THP1 cell culture (5 h); format: cell-based; details: Homo sapiens, THP-1, 5 h, 30 uM cGAMP = 100%; for activation at 30 µM: compound at 30 μM, read-out: % Effect at 30 μM relative to 2′3′-cGAMP; for activation at 3 µM: compound at 3 uM, read-out: % Effect relative to 2′3′-cGAMP (@ 3 uM)
Summary of the method: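 IFN-β in supernatant measured by AlphaLISA after a 5 h, 37 °C incubation of THP1 cells with compound (10 concentrations, 30000 down to 1.5 nM, 0.3% DMSO) in low-serum RPMI. Values scaled between DMSO and 30 uM cGAMP controls; 4-parameter curve fit yields EC50.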

[2] = target: T1, full-length WT STING (Homo sapiens, UniProt Q86WV6, H232R); assay: 3H-cGAMP filtration binding assay (WT STING); details: competition with tritiated cGAMP, WT STING membrane
T1 construct: AviTag (after gg linker) (C); HRV3C cleavage site (after gs linker) (C); HIS8 (C); made in house; host or cells: Trichoplusia ni (Hi-Five) insect cells infected with baculovirus (virus generated and amplified in Sf21 cells); used as a washed membrane preparation
Summary of the method: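 EC50 values come from 4-parameter fits of remaining filter-bound tritium versus log concentration (10-point, 1:3 dilution). Insect-cell membranes carrying full-length WT STING were incubated 60 min at RT with compound and tritiated cGAMP (16 nM working stock) before filtration.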

[3] = target: T2, full-length HAQ STING (Homo sapiens, UniProt Q86WV6, G230A/H232R/R293Q/R71H); assay: 3H-cGAMP filtration binding assay (HAQ STING); details: competition with tritiated cGAMP, HAQ STING membrane
T2 construct: AviTag (after GG linker) (C); HRV3C cleavage site (after GS linker) (C); HIS8 (C); made in house; host or cells: Trichoplusia ni (Hi-Five) insect cells infected with baculovirus (virus generated and amplified in Sf21 cells); used as a washed membrane preparation
Summary of the method: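 Hi-Five (T. ni) membranes overexpressing the STING variant (2.2 ug/ml working) preincubated with compound 60 min at RT in PBS, then [3H]cGAMP (8 nM working stock) added for 60 min at RT. Bound radioactivity captured on GF/B filters and counted by scintillation; EC50 from 4-parameter fit of control-normalized activity.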

T2 sequence (Q86WV6 with tags, fused parts or gaps R71H/G230A/H232R/R293Q): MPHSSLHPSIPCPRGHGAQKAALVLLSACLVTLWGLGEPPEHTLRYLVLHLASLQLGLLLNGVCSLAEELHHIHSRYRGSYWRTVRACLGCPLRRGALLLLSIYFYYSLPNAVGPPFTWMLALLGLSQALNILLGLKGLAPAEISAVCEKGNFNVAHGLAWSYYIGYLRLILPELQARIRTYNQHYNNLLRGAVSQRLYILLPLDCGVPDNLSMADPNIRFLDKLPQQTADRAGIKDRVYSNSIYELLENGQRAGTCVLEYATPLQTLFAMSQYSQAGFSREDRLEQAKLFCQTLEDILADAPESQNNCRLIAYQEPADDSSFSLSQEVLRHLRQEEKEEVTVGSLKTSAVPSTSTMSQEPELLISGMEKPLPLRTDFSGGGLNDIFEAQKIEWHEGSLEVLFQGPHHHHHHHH
T1 sequence (Q86WV6 with tags, fused parts or gaps H232R): as the sequence (Q86WV6 with tags, fused parts or gaps R71H/G230A/H232R/R293Q) above, with H71R, A230G, Q293R counted along it

Row | Structure (SMILES) | EC50 [2] | EC50 [3] | activation at 30 µM [1] | activation at 3 µM [1]
1 | COc1cc2sc(CCC(C)(C)C(=O)O)cc2c(F)c1OCCCOc1c(OC)cc2sc(C(=O)[C@@H]3CC[C@H]3C(=O)O)cc2c1F (relative stereo) [Example 141, trans-2-(5-(3-((2-(3-carboxy-3-methylbutyl)-4-fluoro-6-methoxybenzo[b]thiophen-5-yl)oxy)propoxy)-4-fluoro-6-methoxybenzo[b]thiophene-2-carbonyl)cyclobutane-1-carboxylic acid] | 219 nM | 24 nM | 143% | –
2 | COc1cc2sc(C[C@@H]3CC[C@H]3C(=O)O)cc2c(F)c1OCCCOc1c(OC)cc2sc(C(=O)C[C@H](C)C(=O)O)cc2c1F [Example 135, 2-((5-(3-((2-((S)-3-carboxybutanoyl)-4-fluoro-6-methoxybenzo[b]thiophen-5-yl)oxy)propoxy)-4-fluoro-6-methoxybenzo[b]thiophen-2-yl)methyl)cyclo-butanecarboxylic acid] | 5 nM | 1 nM | 100% | –
3 | COc1cc2cc(C(=O)C[C@H](C)C(=O)O)sc2cc1OCCCOc1c(OC)cc2sc(C(=O)[C@@H]3CC[C@H]3C(=O)O)cc2c1F [Example 171, trans-2-(5-(3-((2-((S)-3-carboxybutanoyl)-5-methoxybenzo[b]thiophen-6-yl)oxy)propoxy)-4-fluoro-6-methoxybenzo[b]thiophene-2-carbonyl)cyclobutanecarboxylic acid] | 59 nM | 9 nM | 97% | –
4 | COc1cc2sc(C(=O)CCC(=O)O)cc2c(F)c1OCCOc1c(OC)cc2sc(C(=O)CCC(=O)O)cc2c1F [Example 65, 4,4′-((ethane-1,2-diylbis(oxy))bis(4-fluoro-6-methoxybenzo[b]thiophene-5,2-diyl))bis(4-oxobutanoic acid)] | 1 nM | 1 nM | 105% | –
5 | COc1cc2sc(C(=O)C[C@H](C)C(=O)O)cc2c(F)c1CCCOc1c(OC)cc2sc(CC[C@H](C)C(=O)O)cc2c1F [Example 105, (S)-4-(5-(3-((2-((S)-3-carboxybutyl)-4-fluoro-6-methoxybenzo[b]thiophen-5-yl)oxy)propyl)-4-fluoro-6-methoxybenzo[b]thiophen-2-yl)-2-methyl-4-oxobutanoic acid] | 311 nM | 39 nM | 130% | –
6 | COc1cc2sc(CC[C@H](C)C(=O)O)cc2c(F)c1OCCCOc1c(O)cc2sc(C(=O)C[C@H](C)C(=O)O)cc2c1Cl [Example 186, (S)-4-(5-(3-((2-((S)-3-carboxybutyl)-4-fluoro-6-methoxybenzo[b]thiophen-5-yl)oxy)propoxy)-4-chloro-6-hydroxybenzo[b]thiophen-2-yl)-2-methyl-4-oxobutanoic acid] | 756 nM | 133 nM | – | 56%
7 | COc1cc2sc(CC[C@H](C)C(=O)O)cc2c(F)c1OCCCOc1c(OC)cc2sc(CC[C@H](C)C(=O)O)cc2c1F [Example 116, (2S,2′S)-4,4′-(5,5′-(propane-1,3-diylbis(oxy))bis(4-fluoro-6-methoxybenzo[b]thiophene-5,2-diyl))bis(2-methylbutanoic acid)] | 4240 nM | 623 nM | 8% | –
8 | COc1cc2sc(C(=O)C[C@H](C)C(=O)O)cc2c(Cl)c1OCCOc1c(OC)cc2sc(C(=O)C[C@H](C)C(=O)O)cc2c1Cl [Example 153, (2S,2′S)-4,4′-((ethane-1,2-diylbis(oxy))bis(4-chloro-6-methoxybenzo[b]thiophene-5,2-diyl))bis(2-methyl-4-oxobutanoic acid)] | 10 nM | 3 nM | – | 137%
9 | COc1cc2sc(C(=O)CCC(=O)O)cc2nc1CCCOc1c(OC)cc2sc(C(=O)C[C@H](C)C(=O)O)cc2c1F [Example 174, (S)-4-(5-(3-(2-(3-carboxypropanoyl)-6-methoxythieno[3,2-b]pyridin-5-yl)propoxy)-4-fluoro-6-methoxybenzo[b]thiophen-2-yl)-2-methyl-4-oxobutanoic acid] | 1 nM | 1 nM | 88% | –

Further lines, with some results ahead:

Row | EC50 [2] | EC50 [3] | Structure (SMILES) | activation at 30 µM [1] | activation at 3 µM [1]
10 | 327 nM | 33 nM | COc1cc2sc(C(=O)C[C@H](C)C(=O)O)cc2cc1CCCNc1cc2cc(C(=O)C[C@H](C)C(=O)O)sc2cc1OC [Example 61, (S)-4-(5-(3-((2-((S)-3-carboxybutanoyl)-6-methoxybenzo[b]thiophen-5-yl)amino)propyl)-6-methoxybenzo[b]thiophen-2-yl)-2-methyl-4-oxobutanoic acid] | 62% | –
11 | 1040 nM | 695 nM | COc1cc2sc(C(=O)CCC(=O)O)cc2cc1OCCOc1cc2cc(C(=O)CCC(=O)O)sc2cc1OC [Example 38, 4,4′-((ethane-1,2-diylbis (oxy))bis(6-methoxybenzo [b]thiophene-5,2-diyl))bis(4-oxobutanoic acid)] | 17% | –
12 | 56 nM | 22 nM | COc1cc2sc(C(=O)C[C@H](C)C(=O)O)cc2cc1OCCOc1cc2cc(C(=O)C[C@H](C)C(=O)O)sc2cc1OC [Example 76, (2S,2′S)-4,4′-((ethane-1,2-diylbis(oxy))bis(6-methoxybenzo[b]thiophene-5,2-diyl))bis(2-methyl-4-oxobutanoic acid)] | 44% | –
13 | 8 nM | 3 nM | COc1cc2sc(C(=O)C[C@H](C)C(=O)O)cc2cc1OCCCOc1cc2sc(C(=O)C[C@H](C)C(=O)O)cc2cc1OC [Example 51] | 43% | –
14 | 117 nM | 8 nM | COc1cc2sc(C(=O)C[C@H](C)C(=O)O)cc2cc1OCCCOc1cc2sc(C(=O)C[C@H](C)C(=O)O)cc2nc1OC [Example 166, (S)-4-(5-(3-((2-((S)-3-carboxybutanoyl)-5-methoxythieno[3,2-b]pyridin-6-yl)oxy)propoxy)-6-methoxybenzo[b]thiophen-2-yl)-2-methyl-4-oxobutanoic acid] | 34% | –
15 | 1 nM | 1 nM | COc1cc2sc(C(=O)C[C@H](C)C(=O)O)cc2nc1OCCCOc1c(OC)cc2sc(C(=O)C[C@H](C)C(=O)O)cc2c1F (racemic) [Example 22, rac-(R)-4-(5-(3-((2-((R)-3-carboxybutanoyl)-4-fluoro-6-methoxybenzo[b]thiophen-5-yl)oxy)propoxy)-6-methoxythieno[3,2-b]pyridin-2-yl)-2-methyl-4-oxobutanoic acid] | 48% | –
16 | 50 nM | 16 nM | COc1cc2sc(C(=O)C[C@H](C)C(=O)O)cc2cc1CCCOc1cc2cc(C(=O)C[C@H](C)C(=O)O)sc2cc1OC [Example 41, (2S)-4-{5-[3-({2-[(3S)-3-carboxybutanoyl]-6-methoxy-1-benzothiophen-5-yl}oxy)propyl]-6-methoxy-1-benzothiophen-2-yl}-2-methyl-4-oxobutanoic acid] | 117% | –
17 | 1 nM | 1 nM | COc1cc2sc(C(=O)C[C@H](C)C(=O)O)cc2cc1OCCCOc1nc2cc(C(=O)C[C@H](C)C(=O)O)sc2cc1OC [Example 58, (S)-4-(5-(3-((2-((S)-3-carboxybutanoyl)-6-methoxybenzo[b]thiophen-5-yl)oxy)propoxy)-6-methoxythieno[3,2-b]pyridin-2-yl)-2-methyl-4-oxobutanoic acid] | 46% | –
